Patent US20240051965A1, “OXYGEN-CONTAINING HETEROCYCLIC COMPOUND AND USE THEREOF” (Icahn School of Medicine at Mount Sinai, priority 2022, published 2024)

The compounds below were run on TGF/SMAD Signaling Pathway SBE Reporter-HEK293 Cell Line (assay: Luciferase screen, TGF/SMAD Signaling Pathway SBE Reporter-HEK293 cells stimulated with TGFβ). Settings: compound 4 hours before TGFβ 10 ng/mL, incubated overnight (18 hours), luminescence.
Type: cell-based
Procedure: For the data in Table 1, the Bight-Glo™ Luciferase Assay System from Promega was used with TGF/SMAD Signaling Pathway SBE Reporter-HEK293 Cell Line from BPSbioscience. On day 1 SBE reporter-HEK293 cells were seeded at a density of 25,000 cells per well into a white clear-bottom 96-well microplate in 100 μL of growth medium without geneticin. The plate was incubated at 37° C. in a CO2 incubator for 24 hrs. The wells were renewed with 60 μL assay medium and treated with test compounds by adding 5 μL of compounds in medium. The concentration of test compound in medium is adjusted so that 5 μL will provide the desired molarity of the solution. After 4 hours, TGFβ was added to 10 ng/mL. The plate was incubated at 37° C. in a CO2 incubator overnight (18 hours). One hour prior to assay all medium was replaced. The luciferase assay was run using ONE-Step™ Luciferase Assay System by adding 100 μL of ONE-Step™ Luciferase reagent per well, rocking at room temperature for ˜15 to 30 minutes and measuring luminescence using a luminometer. The signals were normalized to percentage inhibition, with non-TGF treated cells as 100% inhibition, and the data were processed by Graphpad Prism.
The symbol “***” indicates IC50<100 nM, “**” indicates IC50≥100 nM but <10 μM, “*” indicates IC50≥10 μM.

Question: `O[C@H]1Cc2cc(-c3nc(-c4ccc(Cl)cc4)no3)cnc2OC12CCC2` [Compound 1] was tested. Which IC50 did it give?
Answer: 0.1 to 10 µM

Question: `O[C@@H]1Cc2cc(-c3nc(-c4ccc(Cl)cc4)no3)cnc2OC12CCC2` [Compound 2] was tested. Which IC50 did it give?
Answer: < 0.1 µM

Question: For `O[C@H]1Cc2cc(-c3nc(-c4ccc(Cl)cc4)no3)cnc2OC12CCCC2` [Compound 3], which IC50 is on record?
Answer: ≥ 10 µM

Question: Which IC50 does the source give for `O[C@H]1Cc2cc(-c3nc(-c4ccc(Cl)c(F)c4)no3)cnc2OC12CCC2` [Compound 4] here?
Answer: ≥ 10 µM

Question: How did the IC50 turn out when `Cc1ccc(-c2noc(-c3cnc4c(c3)C[C@H](O)C3(CCC3)O4)n2)cc1` [Compound 5] was run?
Answer: ≥ 10 µM

Question: `Cn1ccc(-c2noc(-c3cnc4c(c3)C[C@H](O)C3(CCC3)O4)n2)n1` [Compound 6] was tested. Which IC50 did it give?
Answer: ≥ 10 µM

Question: For `O[C@H]1Cc2cc(-c3nnc(-c4ccc(Cl)cc4)o3)cnc2OC12CCC2` [Compound 7], which IC50 is on record?
Answer: 0.1 to 10 µM

Question: Which IC50 does the source give for `O[C@H]1Cc2cc(-c3noc(-c4ccc(Cl)cc4)n3)cnc2OC12CCC2` [Compound 8] here?
Answer: ≥ 10 µM

Question: Which IC50 does the source give for `[2H]C([2H])([2H])C1(C([2H])([2H])[2H])Oc2ncc(-c3nc(-c4ccc(Cl)cc4)no3)cc2C[C@@H]1O` [Compound 9] here?
Answer: < 0.1 µM
